From patent US20180169123A1, “COMBINATION THERAPY WITH A FLAVAGLINE AND 2-DEOXYGLUCOSE” (Ruprecht-Karls-Universitat Heidelberg, priority 2015, published 2018)

Key:
Type in all cases: cell-based
HT29 = test: MTT cell viability assay, tumor cell line (Example 1); conditions: Homo sapiens, 48 h, relative to untreated cells, read-out: Cell viability after treatment
Experimental: (§1) The MTT (MethylThiazol Tetrazolium) assay was used to determine cell viability. The MTT assay is a colorimetric method for measuring the activity of cellular enzymes that reduce the tetrazolium dye, MTT, to its insoluble formazan, giving a purple color. This method was used in the present experiments to reflect the number of viable cells present and to measure cytotoxicity (loss of viable cells).
(§2) Cells were plated in flat-bottom 96-well plates at a cell number of 10,000 in 100 p of medium per well. RPMI 1640 (Roswell Park Memorial Institute, Gibco, City, State) supplemented with fetal bovine serum (10%) and penicillin/streptomycin (1%) medium was used for cell culturing and plating. After plating, cells were incubated at 37° C. in an incubator at 5% CO2 concentration for 24 hours before the beginning of treatment. After that, when cells became adherent, the medium was removed and 2-DG and rocaglamide were added to the cells at a concentration of 1 mM and 0.1 μM, respectively. After 48 hours of incubation, 20 μl of MTT reagent was added to each well. Cells were incubated for 1 hour at 37° C. before colorimetric assessment
(§3) To determine the amount of viable cells after the treatment, the absorption was measured at a wave length of 485 nm with the help of an ELISA reader device (TECAN GENios, Austria). All measurements were carried out in quadruplicate. Mean values and standard deviations were calculated from the measured values after background subtraction. As background, absorption was measured in wells containing medium alone.

GL261 = test: as above; conditions: Mus musculus, 48 h, relative to untreated cells, read-out: Cell viability after treatment
Experimental: as §1, §2, §3

SW480 = test: as above; conditions: Homo sapiens, 48 h, relative to untreated cells, read-out: Cell viability after treatment
Experimental: as §1, §2, §3

SMA560 = test: as above; conditions: Mus musculus, 48 h, relative to untreated cells, read-out: Cell viability after treatment
Experimental: as §1, §2, §3

RKO = test: as above; conditions: Homo sapiens, 48 h, relative to untreated cells, read-out: Cell viability after treatment
Experimental: as §1, §2, §3

U373 = test: as above; conditions: Homo sapiens, U373 MG, 48 h, relative to untreated cells, read-out: Cell viability after treatment
Experimental: as §1, §2, §3

K073 = test: as above; conditions: 48 h, relative to untreated cells, read-out: Cell viability after treatment
Experimental: as §1, §2, §3

LNT229 = test: as above; conditions: 48 h, relative to untreated cells, read-out: Cell viability after treatment
Experimental: as §1, §2, §3

C3 = test: as above; conditions: 48 h, relative to untreated cells, read-out: Cell viability after treatment
Experimental: as §1, §2, §3

H146 = test: as above; conditions: Homo sapiens, 48 h, relative to untreated cells, read-out: Cell viability after treatment
Experimental: as §1, §2, §3

NCH82 = test: as above; conditions: Homo sapiens, 48 h, relative to untreated cells, read-out: Cell viability after treatment
Experimental: as §1, §2, §3

HCT116 = test: as above; conditions: Homo sapiens, 48 h, relative to untreated cells, read-out: Cell viability after treatment
Experimental: as §1, §2, §3

NCH89 = test: as above; conditions: Homo sapiens, 48 h, relative to untreated cells, read-out: Cell viability after treatment
Experimental: as §1, §2, §3

HCT116 cells = test: MTT assay, IC50 of flavaglines with and without 2DG (Example 2); conditions: HCT116 (FIG. 1A); flavagline 10-100 nM with 1 mM 2DG versus flavagline alone; 48 h
Source text: (§4) FIG. 1: Determination of IC50 of Rocaglamide and FL3. Treatment schemes are illustrated by different line patterns explained on the right side of each graphic. Solid lines with squares represent treatment with Rocaglamide, dotted lines with circles represent treatment with Rocaglamide and 2DG in combination, dotted lines with triangles represent treatment with FL3, and dotted lines with rhombus represent treatment with FL3 and 2DG in combination. X axis represents treatment doses of flavaglines (Rocaglamide or FL3), y axis represents relative cell viability (determined by MT assay) in %; cells not treated with flavaglines are used as a reference (corresponding to 100% viability). A. HCT116 cells. B. HT29 cells. C: normal human PBMCs.
(§5) The MTT (MethylThiazol Tetrazolium) assay was the same as in Example 1. Colorectal cancer cells (HCT116 and HT29) as well as normal human PBMCs were plated in flat-bottom 96-well plates at a cell number of 10,000 and 100,000, respectively, in 100 μl of medium per well. […] (Roswell Park Memorial Institute, Gibco, Paisley, UK) supplemented with 10% fetal bovine serum and 1% penicillin/streptomycin (Gibco, N.Y., USA) medium was used for cell culturing and plating of tumor cells. Medium for PBMCs consisting of Iscove's modified DMEM (IMDM) supplemented by 10% human AB serum, 1% L-glutamin and 0,05% gentamycin was used for plating PBMCs. After plating, rocaglamide and FL3 were applied at five increasing concentrations (10, 25, 50, 75 and 100 nM) as single substances and in combination with 1 mM 2DG. Cells were then incubated with drugs in a CO2 chamber at 5% CO2 concentration (Memmert Incubator, Büchenbach, Germany) for 48 hours. Afterwards, 20 μl of MTT reagent (Promega, Madison, Wis., USA) were added to each well. Cells were incubated for 1 hour at 37° C. as above. To determine the amount of viable cells after the treatment the absorption was measured at a wave length of 485 nm in ELISA reader device (TECAN GENios, Salzburg, Austria). All measurements were carried out in quadruplicates.
(§6) Mean values and standard deviations were calculated from the measured values after background subtraction. As background, absorption was measured in wells containing only medium.

normal human PBMCs = test: as above; conditions: normal human PBMCs (FIG. 1C); flavagline 10-100 nM with 1 mM 2DG versus flavagline alone; 48 h
Source text: as §4, §5, §6

HT29 cells = test: as above; conditions: HT29 (FIG. 1B); flavagline 10-100 nM with 1 mM 2DG versus flavagline alone; 48 h
Source text: as §4, §5, §6

tumor cell lines = test: MTT cell viability assay, number of responding cell lines (Example 1); conditions: 2-DG 1 mM alone; 48 h
Experimental: as §1
Cells were plated in flat-bottom 96-well plates at a cell number of 10,000 in 100 p of medium per well. RPMI 1640 (Roswell Park Memorial Institute, Gibco, City, State) supplemented with fetal bovine serum (10%) and penicillin/streptomycin (1%) medium was used for cell culturing and plating. After plating, cells were incubated at 37° C. in an incubator at 5% CO2 concentration for 24 hours before the beginning of treatment. […]
as §3, with “All measurements were carried out in quadruplicate.” left out
2-DG treatment at a concentration of 1 mM induced a significant response (reduction of viability to less than 80% of the untreated cells) in 9 out of 15 cell lines analyzed.

U138MG cells = test: Cell viability with 2DG alone or combined with Rocaglamide (Example 4, FIG. 3); conditions: Mus musculus, U138-MG, 4 mM 2DG alone
Experimental: (§7) FIG. 3: Cell viability of […] cells treated with 2DG (1 mM or 4 mM) and of PBMCs treated with 2DG (1 mM) alone or in combination with Rocaglamide (0.1 μM, 0.025 μM, 0.01 μM).
In order to evaluate the potential of Rocaglamide to reduce the dose of 2DG while at the same time maintaining its antitumoral effect, combinations of different doses of 2DG with Rocaglamide were evaluated in U138MG cells ([…]). The cell-killing effect of the combination of Rocaglamide and 2DG was then compared with the effect of 2DG alone.

in vitro = conditions: human
Experimental: as §7

Q: Which viability at 0.1 µM (HT29; HT-29, rocaglamide 0.1 μM alone) does the source give for COc1ccc([C@@]23Oc4cc(OC)cc(OC)c4[C@]2(O)[C@H](O)[C@H](C(=O)N(C)C)[C@H]3c2ccccc2)cc1 [Rocaglamide, (1R,2R,3S,3aR,8bS)-1,8b-dihydroxy-6,8-dimethoxy-3a-(4-methoxyphenyl)-N,N-dimethyl-3-phenyl-2,3-dihydro-1H-cyclopenta[b][1]benzofuran-2-carboxamide] here?
A: 52.3%

Q: What about the viability at 0.1 µM (GL261; rocaglamide 0.1 μM alone) of the same compound?
A: 58.2%

Q: And the viability at 0.1 µM (SW480; rocaglamide 0.1 μM alone)?
A: 59.5%

Q: What about the viability at 0.1 µM (SMA560; SMA-560, rocaglamide 0.1 μM alone) of the same compound?
A: 92.8%

Q: And the viability at 0.1 µM (RKO; rocaglamide 0.1 μM alone)?
A: 42.9%

Q: And the viability at 0.1 µM (U373; rocaglamide 0.1 μM alone)?
A: 76.4%

Q: And the viability at 0.1 µM (K073; rocaglamide 0.1 μM alone)?
A: 35.9%

Q: What about the viability at 0.1 µM (LNT229; rocaglamide 0.1 μM alone) of the same compound?
A: 100%

Q: And the viability at 0.1 µM (C3; rocaglamide 0.1 μM alone)?
A: 45.3%

Q: What about the viability at 0.1 µM (H146; NCI-H146, rocaglamide 0.1 μM alone) of the same compound?
A: 47.3%

Q: What about the viability at 0.1 µM (NCH82; rocaglamide 0.1 μM alone) of the same compound?
A: 63.2%

Q: And the viability at 0.1 µM (HCT116; HCT-116, rocaglamide 0.1 μM alone)?
A: 14.8%

Q: And the viability at 0.1 µM (NCH89; rocaglamide 0.1 μM alone)?
A: 56.6%

Q: And the “change of IC50 of the flavagline in combination with 2DG” value (from here on “change of IC50 … with 2DG”) (HCT116 cells)?
A: substantially reduced

Q: What about the “change of IC50 of the flavagline in the presence of 2DG” value (normal human PBMCs) of the same compound?
A: increased

Q: And the “change of IC50 … with 2DG” value (HT29 cells)?
A: substantially reduced

Q: What does the source list for OC[C@H]1OC(O)C[C@@H](O)[C@@H]1O (stereo partly drawn) [2DG, (4R,5S,6R)-6-(hydroxymethyl)oxane-2,4,5-triol]?
A: cell lines with significant response (reduction of viability to less than 80% of the untreated cells) (tumor cell lines): 9 out of 15; viability at 1000 µM (HT29; HT-29, 2DG 1 mM alone): 87.5%; viability at 1000 µM (GL261; 2DG 1 mM alone): 63.8%; viability at 1000 µM (SW480; 2DG 1 mM alone): 70.8%; viability at 1000 µM (SMA560; SMA-560, 2DG 1 mM alone): 102%; viability at 1000 µM (RKO; 2DG 1 mM alone): 118%; viability at 1000 µM (U373; 2DG 1 mM alone): 95.6%; viability at 1000 µM (K073; 2DG 1 mM alone): 89.6%; viability at 1000 µM (LNT229; 2DG 1 mM alone): 113%; viability at 1000 µM (C3; 2DG 1 mM alone): 103%; viability at 1000 µM (H146; NCI-H146, 2DG 1 mM alone): 90.5%; viability at 1000 µM (NCH82; 2DG 1 mM alone): 68.3%; viability at 1000 µM (HCT116; HCT-116, 2DG 1 mM alone): 82%; viability at 1000 µM (NCH89; 2DG 1 mM alone): 83.7%; viability at 4000 µM (U138MG cells; U136MG cells, read-out: cell viability compared to the untreated control): 46%; cytotoxicity at 4000 µM (U138MG cells; U138MG cells, read-out: reduction of cell viability compared to the untreated control): 54%; viability at 48 h, 1 mM (in vitro): 81.7%

Q: For COc1cc(OC)c2c(c1)O[C@@]1(c3ccc(Br)cc3)[C@H](c3ccccc3)C[C@@H](O)[C@@]21O [FL3, (1R,3S,3aR,8bS)-3a-(4-Bromophenyl)-6,8-dimethoxy-3-phenyl-2,3,3a,8b-tetrahydro-1H-cyclopenta[b]benzofuran-1,8b-diol], which “change of IC50 … with 2DG” value (HCT116 cells) is on record?
A: substantially reduced

Q: And the “change of IC50 of the flavagline in the presence of 2DG” value (normal human PBMCs)?
A: increased

Q: And the “change of IC50 … with 2DG” value (HT29 cells)?
A: substantially reduced
